According to article PMC4585333, “Novel Regulator of Acylated Ghrelin, CF801, Reduces Weight Gain, Rebound Feeding after a Fast, and Adiposity in Mice” (Frontiers in Endocrinology, 2015):
Entries after “also recorded” stand apart in the source; their conditions may differ.

Tests used:
Assay type in all cases: in vivo, male C57BL/6J mice
Body weight gain = conditions: 13 days
Procedure: (§1) In general, male C57BL/6J mice (The Jackson Laboratory, Bar Harbor, ME, USA) weighing 20–25 g were used as experimental subjects. Throughout the duration of the studies, mice were housed under standard laboratory conditions and received ad libitum access to standard laboratory mouse chow and tap water. Lights in the facility were set to go on and off at 12 h intervals with the lights going on at 7:00 a.m. In some experiments, mice also had ad libitum access to a high-fat diet containing 60% caloric content from fat (TD 06414; Harlan Teklad, Indianapolis, IN, USA) in addition to regular chow to measure dietary preferences. All procedures were approved by the Carleton University Animal Care Committee and followed the guidelines of the Canadian Council on Animal Care.
A second cohort of mice (n = 30) was acclimated to the laboratory conditions for 1 week prior to the onset of the experiment. Mice were housed individually and their body weight and food intake was recorded daily for a baseline period of 10 days. Given that ghrelin augments the intake of preferred diets ([28]), all mice received ad libitum access to a high-fat diet (60% of calories coming from fat), in addition to regular chow, to determine if CF801 altered dietary preference. Both chow and high-fat diet pellets were provided daily to mice ad libitum in pre-weighed amounts. Mice were then assigned to four different groups: non-injected control (NIC; n = 7), vehicle (0.9% saline) (VEH; n = 7), low-dose CF801 (11 μmol⋅kg^−1 – LD; n = 8) and high-dose CF801 (22 μmol⋅kg^−1 – HD; n = 8). Each day at 09:00 hours, mice were weighed and their food intake (both chow and high-fat diet) was recorded. After this, mice received an intraperitoneal injection of either CF801 or saline (except for the non-injected controls). Following the 13-day treatment period, half the animals in each group were sacrificed, while the remaining mice were allowed to recover from treatment. […] Each carcass was analyzed separately and measurements of total fat mass, total lean mass, and total water weight were obtained for each mouse.

[1] = EchoMRI carcass body composition
Procedure: A second cohort of mice (n = 30) was acclimated to the laboratory conditions for 1 week prior to the onset of the experiment. Mice were housed individually and their body weight and food intake was recorded daily for a baseline period of 10 days. Given that ghrelin augments the intake of preferred diets ([28]), all mice received ad libitum access to a high-fat diet (60% of calories coming from fat), in addition to regular chow, to determine if CF801 altered dietary preference. Both chow and high-fat diet pellets were provided daily to mice ad libitum in pre-weighed amounts. Mice were then assigned to four different groups: non-injected control (NIC; n = 7), vehicle (0.9% saline) (VEH; n = 7), low-dose CF801 (11 μmol⋅kg^−1 – LD; n = 8) and high-dose CF801 (22 μmol⋅kg^−1 – HD; n = 8). Each day at 09:00 hours, mice were weighed and their food intake (both chow and high-fat diet) was recorded. After this, mice received an intraperitoneal injection of either CF801 or saline (except for the non-injected controls). Following the 13-day treatment period, half the animals in each group were sacrificed, while the remaining mice were allowed to recover from treatment. […] At this point, the remaining mice were sacrificed. Carcasses from all animals were frozen and stored at −80°C until they were scanned for body composition analyses. Immediately prior to analysis, all carcasses were thawed to room temperature and weighed in order to obtain measures relative to total carcass mass. EchoMRI carcass analyses were performed at Health Canada, Nutrition Research Division facilities using the EchoMRI-1100 (System ID EF-020) scanner. Each carcass was analyzed separately and measurements of total fat mass, total lean mass, and total water weight were obtained for each mouse.
Given these changes in metabolic efficiency as well as the decrease in RER observed in the calorimetry experiment, we hypothesized that CF801 treatment would result in less accumulation of fat. To determine if this was the case, we conducted EchoMRI analyses on every animal post-mortem to identify differences in body composition as a function between groups. […] Furthermore, there was a significant treatment effect on the fat mass:total mass ratio following the recovery period [F(1,15) = 9.245, p < 0.05; partial eta^2 = 0.716].

[2] = Indirect calorimetry, respiratory exchange ratio; conditions: 22 μmol⋅kg^−1 i.p. daily for a week, 4-h period following injection, n = 5 vs saline n = 5; t(5) = 3.457, p < 0.05
Procedure: Mice (n = 10) were housed individually and their body weight and food intake was recorded daily for a baseline period of 10 days. As in Experiment 1, all mice had ad libitum access to regular lab chow and a high-fat diet (60% of calories coming from fat). At the end of the baseline, mice were housed in metabolic chambers (TSE Systems) for 48 h to examine metabolic rate using indirect calorimetry prior to the onset of the drug treatment. While indirect calorimetry measures were obtained throughout the 48-h period, we only analyzed measurements in the last 24 h to allow the animals to adjust to the chambers. Mice were then assigned to one of two groups: vehicle (0.9% saline) (VEH; n = 5) and CF801 (22 μmol⋅kg^−1; n = 5). Each day at 09:00 hours, mice were weighed and their food intake (both chow and high-fat diet) was recorded, and then received an intraperitoneal injection of either CF801 or saline. Drug treatment continued for 16 days. On the eighth day, mice were again placed in the metabolic chambers for 48 h while still being monitored and injected with their respective treatment to determine differences in metabolism produced by the drug.
Given that treatment with CF801 decreased weight gain without altering caloric intake, we reasoned that perhaps CF801 was exerting its effects at the metabolic level. […]

plasma acylated ghrelin = experiment: Plasma acylated ghrelin in fasted mice (ELISA)
Procedure: as §1
Mice (n = 16) were singly housed and given free access to water and regular chow for a 4-day baseline period. After this, mice were assigned to one of three groups: vehicle (n = 5), CF801 low dose (n = 5; 11 μmol⋅kg^−1 – LD), or CF801 high dose (n = 6; 22 μmol⋅kg^−1 – HD). […] Food intake was then monitored every hour for 4 h to determine the effects of CF801 on rebound feeding. […]
Following the treatment or recovery periods, mice were killed by rapid decapitation and plasma and tissue samples were collected. […] Plasma acylated ghrelin for all animals was measured using an ELISA kit (Millipore).

## GSAFLSPEHQRK KRRQRRR-NH2 [CF801]
Body weight gain; 11 μmol⋅kg^−1 i.p. daily, not statistically significant
  weight gain, low dose vs NIC and VEH: tended to have lower weight gain than control NIC (p = 0.092) and VEH-treated mice (p = 0.065)
Body weight gain; 22 μmol⋅kg^−1 i.p. daily, vs saline or non-injected, F(3,29) = 3.098, p < 0.05, partial eta^2 = 0.271
  weight gain, high dose: decrease in weight gain
Body weight gain; 11 vs 22 μmol⋅kg^−1 i.p. daily, p > 0.05
  weight gain, low dose vs high dose: no differences in weight gain
[1]; 11 μmol⋅kg^−1 i.p., 2 weeks after last treatment, vs VEH and NIC, p < 0.05
  fat mass, low dose, after recovery: lower fat mass than mice in the VEH and NIC
[1]; 11 μmol⋅kg^−1 i.p., following recovery period, p < 0.05
  fat mass:lean mass ratio, low dose vs NIC: significantly lower fat mass:lean mass ratio
[1]; 11 μmol⋅kg^−1 i.p., following recovery period, p = 0.058
  fat mass:lean mass ratio, low dose vs VEH: tended to show a reduction in fat mass:lean mass ratio
[1]; 11 μmol⋅kg^−1 i.p., following recovery period, p's < 0.05, overall F(1,15) = 9.245, partial eta^2 = 0.716
  fat mass:total mass ratio, low dose vs NIC and VEH: significantly lower fat mass:total mass ratios
[1]; 11 μmol⋅kg^−1 i.p., vs VEH, end of treatment, p > 0.05
  fat mass, low dose, after treatment period: lower fat mass compared to VEH-treated animals, but this was not statistically significant
[1]; 22 μmol⋅kg^−1 i.p., 2 weeks after treatment terminated, F(1,15) = 15.18, p < 0.05, partial eta^2 = 0.805
  total fat mass, high dose, after recovery: this decrease was more evident
[1]; 22 μmol⋅kg^−1 i.p., following recovery period, p < 0.05, overall F(1,15) = 7.735, partial eta^2 = 0.678
  fat mass:lean mass ratio, high dose vs NIC and VEH: significantly lower fat mass:lean mass ratio
[1]; 22 μmol⋅kg^−1 i.p., following recovery period, p's < 0.05, overall F(1,15) = 9.245, partial eta^2 = 0.716
  fat mass:total mass ratio, high dose vs NIC and VEH: significantly lower fat mass:total mass ratios
[1]; 22 μmol⋅kg^−1 i.p., vs VEH, right after 13-day treatment, F(1,14) = 3.54, p > 0.05 as printed, partial eta^2 = 0.515
  total fat mass, high dose, after treatment period: significantly lower
[1]; 22 vs 11 μmol⋅kg^−1, following recovery period, p > 0.05
  fat mass:lean mass ratio, high dose vs low dose: no different than animals treated with LD CF801
[1]; between groups, p > 0.05
  lean body mass: no differences between the groups
  water mass: no differences between the groups
[2]
  respiratory exchange ratio (RER): significant decrease in RER
Plasma acylated ghrelin; 22 μmol⋅kg^−1 i.p. once daily for 4 days, after fast, vs vehicle, p < 0.05 Fisher LSD
  plasma acylated ghrelin concentration, high dose: statistically significant; also recorded: reduced levels of plasma acylated ghrelin
Plasma acylated ghrelin; i.p. once daily for 4 days, 11 and 22 μmol⋅kg^−1, F(2,24) = 2.90, p < 0.05, partial eta^2 = 0.22
  plasma acylated ghrelin concentration, dose dependence: dose-dependent decrease in plasma ghrelin concentrations
